Molecules are shown by their SMILES.

For one assay, the system named is A549 cells. Nature of the assay: Proliferation Assay (A549 viability, Cell Titer Fluor, 72 hours). It counts as cell-based. The settings on record: Homo sapiens, A549, 72 h. The gist of the method: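 A549 cells seeded at 1000 cells/well, rested 24 h, then exposed to compound in 0.5% DMSO for 72 h at 37 °C. Viability read by Cell Titer Fluor fluorescence; IC50 from four-parameter logistic fit.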

Assay [1] deals with purified recombinant human GAC (GLS1) (Homo sapiens (Human), UniProt O94925). Kind of assay: GLS1 Enzymatic Activity Assay (dual-coupled enzymatic assay, resorufin/Amplex UltraRed readout).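 Note: glutamate from GAC coupled via glutamate oxidase and peroxidase to resorufin, read as fluorescence (ex 530, em 590 nm) kinetically or at 20 min, four-parameter logistic IC50 fit.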 It is filed as biochemical.
Chain of purified recombinant human GAC (GLS1) (O94925 other isoform, or with tags, fused parts or gaps): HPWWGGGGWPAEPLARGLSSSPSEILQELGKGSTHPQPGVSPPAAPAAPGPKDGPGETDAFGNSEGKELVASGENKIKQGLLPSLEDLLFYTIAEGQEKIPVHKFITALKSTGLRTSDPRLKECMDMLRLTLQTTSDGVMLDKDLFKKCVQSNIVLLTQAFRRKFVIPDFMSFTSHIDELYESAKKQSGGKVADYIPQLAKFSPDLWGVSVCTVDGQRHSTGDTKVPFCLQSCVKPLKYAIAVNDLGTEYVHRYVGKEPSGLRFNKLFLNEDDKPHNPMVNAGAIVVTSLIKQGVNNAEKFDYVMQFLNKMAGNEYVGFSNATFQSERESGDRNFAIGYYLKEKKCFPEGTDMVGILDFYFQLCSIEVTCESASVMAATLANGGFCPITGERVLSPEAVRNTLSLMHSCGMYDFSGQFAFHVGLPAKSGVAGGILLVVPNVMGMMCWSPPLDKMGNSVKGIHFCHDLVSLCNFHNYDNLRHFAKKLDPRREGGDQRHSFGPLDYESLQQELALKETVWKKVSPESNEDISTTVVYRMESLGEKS

On to `O=C(NCc1ccc(C(F)(F)F)cn1)c1cn(CCC(F)Cn2cc(C(=O)NCc3cc(C(F)(F)F)ccn3)nn2)nn1` (stereo not shown) [Example 156, 1-{2-fluoro-4-[4-({[5-(trifluoromethyl)pyridin-2-yl]methyl}carbamoyl)-1H-1,2,3-triazol-1-yl]butyl}-N-{[4-(trifluoromethyl)pyridin-2-yl]methyl}-1H-1,2,3-triazole-4-carboxamide], for which the half-maximal effective concentration (EC50) in the assay on A549 cells was < 100 nM. Further, in assay [1], the IC50 is < 100 nM.
For the compound `O=C(NCc1cc(C(F)(F)F)ccn1)c1cn(CCCCn2cc(C(=O)NCc3cc(C(F)(F)F)ccn3)nn2)nn1` [Example 158, N-{[4-(trifluoromethyl)pyridin-2-yl]methyl}-1-{4-[4-({[4-(trifluoromethyl)pyridin-2-yl]methyl}carbamoyl)-1H-1,2,3-triazol-1-yl]butyl}-1H-1,2,3-triazole-4-carboxamide], the EC50 in the assay with A549 cells was < 100 nM. In assay [1], the IC50 was < 100 nM.
`Cc1ccnc(CNC(=O)c2cn(CCC(F)Cn3cc(C(=O)NCc4cc(C(F)(F)F)ccn4)nn3)nn2)c1` (stereo not shown) [Example 159, 1-[2-fluoro-4-(4-{[(4-methylpyridin-2-yl)methyl]carbamoyl}-1H-1,2,3-triazol-1-yl)butyl]-N-{[4-(trifluoromethyl)pyridin-2-yl]methyl}-1H-1,2,3-triazole-4-carboxamide] had a 50% effective concentration (EC50) with A549 cells of 100 to 500 nM. Also, in assay [1], the IC50 is < 100 nM.
Turning to `CNC(=O)c1cn(CCCCc2ccc(NC(=O)Cc3cc(OC(F)(F)F)ccc3F)nn2)nn1` [Example 160, 1-[4-(6-{2-[2-fluoro-5-(trifluoromethoxy)phenyl]acetamido}pyridazin-3-yl)butyl]-N-methyl-1H-1,2,3-triazole-4-carboxamide], in the assay on A549 cells, the EC50 was < 100 nM. Further, the IC50 in assay [1] is < 100 nM.
As to `CNC(=O)c1cn(CCCCc2ccc(NC(=O)Cc3ccccc3)nn2)nn1` [Example 161, N-methyl-1-{4-[6-(2-phenylacetamido)pyridazin-3-yl]butyl}-1H-1,2,3-triazole-4-carboxamide], the EC50 in the assay on A549 cells is < 100 nM. Further, the IC50 in assay [1] was < 100 nM.
Compound `CNC(=O)c1cn(CCC(F)Cn2cc(C(=O)NCc3cccc(OC(F)(F)F)c3)nn2)nn1` (stereo not shown) [Example 162, 1-{3-fluoro-4-[4-({[3-(trifluoromethoxy)phenyl]methyl}carbamoyl)-1H-1,2,3-triazol-1-yl]butyl}-N-methyl-1H-1,2,3-triazole-4-carboxamide] yielded an EC50 in the assay on A549 cells of 100 to 500 nM. The IC50 in assay [1] lay within 100 to 500 nM.
In the assay on A549 cells, `CNC(=O)c1cn(CCC(F)Cn2cc(C(=O)NCc3ccccn3)nn2)nn1` (stereo not shown) [Example 163, 1-(3-fluoro-4-{4-[(pyridin-2-ylmethyl)carbamoyl]-1H-1,2,3-triazol-1-yl}butyl)-N-methyl-1H-1,2,3-triazole-4-carboxamide] registered an EC50 of 500 to 5000 nM. Besides, the IC50 in assay [1] lay within 500 to 5000 nM.
`CNC(=O)c1cn(CCC(F)Cn2cc(C(=O)NCc3cncc(C4CC4)c3)nn2)nn1` (stereo not shown) [Example 164, 1-[4-(4-{[(5-cyclopropylpyridin-3-yl)methyl]carbamoyl}-1H-1,2,3-triazol-1-yl)-3-fluorobutyl]-N-methyl-1H-1,2,3-triazole-4-carboxamide] had an EC50 with A549 cells of 100 to 500 nM. The concentration for half-maximal inhibition (IC50) in assay [1] is < 100 nM.
The like results for `CNC(=O)c1cn(CCC(F)Cn2cc(C(=O)NCc3ccccc3)nn2)nn1` (stereo not shown) [Example 165, 1-{4-[4-(benzylcarbamoyl)-1H-1,2,3-triazol-1-yl]-3-fluorobutyl}-N-methyl-1H-1,2,3-triazole-4-carboxamide] were, in that order, 500 to 5000 nM and 100 to 500 nM.
The matching figures for `CNC(=O)c1cn(CCC(F)Cn2cc(C(=O)NCc3cccc(CNC(=O)OC(C)(C)C)c3)nn2)nn1` (stereo not shown) [Example 166, tert-butyl N-[(3-{[(1-{2-fluoro-4-[4-(methylcarbamoyl)-1H-1,2,3-triazol-1-yl]butyl}-1H-1,2,3-triazol-4-yl)formamido]methyl}phenyl)methyl]carbamate]: 100 to 500 nM and < 100 nM.
`N#CCNC(=O)c1cn(CCC(F)Cn2cc(C(=O)NCc3cc(OC(F)(F)F)ccc3F)nn2)nn1` (stereo not shown) [Example 168, N-(cyanomethyl)-1-{3-fluoro-4-[4-({[2-fluoro-5-(trifluoromethoxy)phenyl]methyl}carbamoyl)-1H-1,2,3-triazol-1-yl]butyl}-1H-1,2,3-triazole-4-carboxamide] had an EC50 with A549 cells of 100 to 500 nM. In addition, the 50% inhibitory concentration (IC50) in assay [1] was < 100 nM.
The compound `CNC(=O)c1cn(CCC(F)Cn2cc(C(=O)NCc3cnc4ccccc4c3)nn2)nn1` (stereo not shown) [Example 170, 1-(3-fluoro-4-{4-[(quinolin-3-ylmethyl)carbamoyl]-1H-1,2,3-triazol-1-yl}butyl)-N-methyl-1H-1,2,3-triazole-4-carboxamide] returned an EC50 in the assay with A549 cells of 500 to 5000 nM. The IC50 in assay [1] lay in the range of 100 to 500 nM.
In the assay on A549 cells, `CNC(=O)c1cn(CCC(F)Cn2cc(C(=O)NCc3cncc4ccccc34)nn2)nn1` (stereo not shown) [Example 171, 1-(3-fluoro-4-{4-[(isoquinolin-4-ylmethyl)carbamoyl]-1H-1,2,3-triazol-1-yl}butyl)-N-methyl-1H-1,2,3-triazole-4-carboxamide] came in with an EC50 of 500 to 5000 nM. Moreover, the IC50 in assay [1] was 100 to 500 nM.
For `CNC(=O)c1cn(CCCCc2ccc(NC(=O)Cc3cccc(CNC(=O)OC(C)(C)C)c3)nn2)nn1` [Example 172], the EC50 with A549 cells is < 100 nM. For the same compound, the IC50 in assay [1] was < 100 nM.
With `CNC(=O)c1cn(CCCCc2ccc(NC(=O)Cc3cccc(OCCOC)c3)nn2)nn1` [Example 173, 1-[4-(6-{2-[3-(2-methoxyethoxy)phenyl]acetamido}pyridazin-3-yl)butyl]-N-methyl-1H-1,2,3-triazole-4-carboxamide], the EC50 with A549 cells fell in the range of 100 to 500 nM. The IC50 in assay [1] was in the range of 100 to 500 nM.
As for `CC(=O)Nc1ccc(CCCCn2cc(C(=O)NCc3cccc(OC(F)(F)F)c3)nn2)nn1` [Example 174, 1-[4-(6-acetamidopyridazin-3-yl)butyl]-N-{[3-(trifluoromethoxy)phenyl]methyl}-1H-1,2,3-triazole-4-carboxamide], in the assay with A549 cells, the EC50 was 100 to 500 nM. In assay [1], the IC50 is < 100 nM.
With `CC(=O)Nc1ccc(CCCCn2cc(C(=O)NCc3cc(C(F)(F)F)ccn3)nn2)nn1` [Example 175, 1-[4-(6-acetamidopyridazin-3-yl)butyl]-N-{[4-(trifluoromethyl)pyridin-2-yl]methyl}-1H-1,2,3-triazole-4-carboxamide], the EC50 with A549 cells lay within 100 to 500 nM. Besides, in assay [1], the IC50 is < 100 nM.
In turn, `O=C(NCc1cccc(OC(F)(F)F)c1)c1cn(CCCCc2ccc(NC(=O)C3CC3)nn2)nn1` [Example 176, 1-[4-(6-cyclopropaneamidopyridazin-3-yl)butyl]-N-{[3-(trifluoromethoxy)phenyl]methyl}-1H-1,2,3-triazole-4-carboxamide] had an EC50 in the assay with A549 cells of 100 to 500 nM. In assay [1], the IC50 is < 100 nM.
In the assay with A549 cells, `O=C(NCc1cc(C(F)(F)F)ccn1)c1cn(CCCCc2ccc(NC(=O)C3CC3)nn2)nn1` [Example 177, 1-[4-(6-cyclopropaneamidopyridazin-3-yl)butyl]-N-{[4-(trifluoromethyl)pyridin-2-yl]methyl}-1H-1,2,3-triazole-4-carboxamide] showed a 50% effective concentration (EC50) of 100 to 500 nM. For the same compound, in assay [1], the IC50 is < 100 nM.
`CNC(=O)c1cn(CCCCc2ccc(NC(=O)Cc3cccc(N4CCOCC4)c3)nn2)nn1` [Example 178, N-methyl-1-[4-(6-{2-[3-(morpholin-4-yl)phenyl]acetamido}pyridazin-3-yl)butyl]-1H-1,2,3-triazole-4-carboxamide]: the EC50 with A549 cells was 100 to 500 nM. Moreover, the IC50 in assay [1] was < 100 nM.

The term EC50 denotes the concentration giving half of the maximal effect. Lower therefore signals an effect from little substance. As a reminder, the IC50 is the concentration needed to halve the response being measured.

Values taken from patent publication US10344025B2, “GLS1 inhibitors for treating disease” (Board of Regents, The University of Texas System, priority 2014, dated 2019).
